These results are taken from article PMC12679848, “Sulphonamide derivatives with a triazine core as novel inducers of apoptosis and pyroptosis in glioblastoma multiforme cells” (Journal of Enzyme Inhibition and Medicinal Chemistry, 2025).

The test system of one data set is U-118 MG. Description: MTT assay, U-118 MG. In kind it is cell-based. The note with it: Homo sapiens, 24 h of incubation, read-out: IC50 values ± SEM, MTT assay. As for the experimental part:
(§1) Human glioblastoma cell lines (A172 CRL-1620™, U-87 MG HTB-14™, U-118 MG HTB-15™, T98G CRL-1690™) and the mouse astrocyte cell line (C8-D1A CRL-2541™) were obtained from the American Type Culture Collection (ATCC, Manassas, VA, USA). The cell lines were cultured in complete medium: DMEM (Corning, Kennebunk, ME, USA) for C8-D1A and T98G, and EMEM (ATCC, Manassas, VA, USA) for A172, U-87 MG, U118MG. The media were supplemented with 10% foetal bovine serum (Eurx, Gdansk, Poland) and 1% penicillin-streptomycin solution (Corning, Kennebunk, ME, USA). Cells were cultured in cell culture flasks (Sarstedt, Numbrecht, Germany) at 37 °C in 5% CO2. For experiments, cells were washed with phosphate-buffered saline without calcium and magnesium (Corning, Kennebunk, ME, USA) and treated with 0.05% trypsin and 0.02% EDTA (Corning, Kennebunk, ME, USA). Cells were counted using a Sceptre 3.0 cell counter (Merck Millipore, Burlington, MA, USA) prior to seeding into plates. For 6-well plates, 5 x 10^5 cells/mL were seeded, while for 96-well plates (Sarstedt, Numbrecht, Germany), 1 x 10^5 cells/mL were seeded in 100 μL of the medium.
(§2) The cell lines were seeded in 96-well plates and cultured according to the methodology described in the previous section. Cells were then treated with the novel derivatives MM118 and MM119 and the reference compound temozolomide (TMZ) (Sigma-Aldrich, St. Louis, MO, USA) at concentrations of 0.1, 0.25, 0.5, 1.0, 2.5, 5.0, and 10.0 μM for 24 h. The MTT assay was performed using a solution of 3–(4,5-dimethyl-2-thiazolyl)-2,5-diphenyl-2H-tetrazolium bromide (Sigma-Aldrich, St. Louis, MO, USA) at a concentration of 5 mg/mL in phosphate-buffered saline without calcium and magnesium (Corning, Kennebunk, ME, USA). After 24 h incubation with test compounds, 10 μL MTT solution was added to each well, and cells were incubated for another 2 h at 37 °C. The cells were then lysed in 100 μL lysis buffer (25 mM HCl, 2% acetic acid, 3% DMF, and 5% SDS, adjusted to pH 4.7). Absorbance was measured at 570 nm using an Absorbance 96 microplate reader (Byonoy GmbH, Hamburg, Germany).
On the technique in general: Formazan colour is commonly taken as a measure of viable cells.

The next data set concerns T98G. Description: MTT assay, T98G. In kind it is cell-based. The note with it: Homo sapiens, 24 h of incubation. As to the method: as §1, §2
The next data set relates to A172. Description: MTT assay, A172. The data set is classed as cell-based. The note with it: Homo sapiens, A172, 24 h of incubation. As to the method: as §1, §2
Another data set relates to U-87 MG. Description: MTT assay, U-87 MG. In kind it is cell-based. The note with it: Homo sapiens, 24 h of incubation. As to the method: as §1, §2
The subject of a further data set is C8-D1A. Description: MTT assay, C8-D1A astrocytes. The note with it: C8-D1A mouse astrocytes, 24 h of incubation. The data set is classed as cell-based. As to the method: as §1, §2
In the next data set the test system is DNA. Details: method as in PMID 36835469. The note with it: comet assays; cited from earlier work.
Where [1] appears, read: 24 h, heading: IC50 values ± SEM, MTT assay.
[2] abbreviates: read-out: IC50 values ± SEM, MTT assay.
Where [3] appears, read: A 172, read-out: IC50 values ± SEM, MTT assay.

Read-outs that look alike come from different tables or passages of the source.

On to `COC(=O)C1CCCN1S(=O)(=O)c1ccc(-n2nc(C)c3nc4nnnn4nc32)cc1` (stereo not shown) [MM128, Methyl 1-[4–(7-methyl-5H-pyrazolo[4,3-e]tetrazolo[1,5-b][1]^,[2]^,[4]triazin-5-yl)phenylsulfonyl]-pyrrolidine-2-carboxylate], for which the IC50 stood at 563 µM with U-118 MG; 1.53 µM in the data set with T98G (setting [1]); 1.65 µM with A172 (A 172, 24 h, heading: IC50 values ± SEM, MTT assay).
`Cc1nn(-c2ccc(S(=O)(=O)N[C@@H](CO)CC(C)C)cc2)c2nn3nnnc3nc12` [MM124]: the IC50 with U-118 MG, in the data set on U-87 MG (setting [2]), with T98G (setting [2]), in the data set on C8-D1A (setting [2]) and with A172 (setting [3]) was more than 10 µM in each case.
Turning to `Cc1nn(-c2ccc(S(=O)(=O)N[C@H](C)CO)cc2)c2nn3nnnc3nc12` [MM131], the “DNA damage (single-strand and double-strand breaks)” value with DNA was “induce DNA damage”.
In the case of `COC(=O)C1CC(O)CN1S(=O)(=O)c1ccc(-n2nc(C)c3nc4nnnn4nc32)cc1` (stereo not shown) [MM129, Methyl (Z)-4-hydroxy-1-[4–(7-methyl-5H-pyrazolo[4,3-e]tetrazolo[1,5-b][1]^,[2]^,[4]triazin-5-yl)phenyl-sulfonyl]pyrrolidine-2-carboxylate], the “DNA damage (single-strand and double-strand breaks)” value in the data set on DNA is recorded as “induce DNA damage”. Moreover, the IC50 in the data set on U-87 MG (setting [1]) was 2.35 µM; in the data set on C8-D1A (setting [1]), 2.86 µM.
As for `Cc1nn(-c2ccc(S(=O)(=O)NC[C@H](O)CO)cc2)c2nn3nnnc3nc12` [MM126], the IC50 in the data set on U-118 MG, with U-87 MG (setting [2]), with T98G (setting [2]), in the data set with C8-D1A (setting [2]) and in the data set with A172 (setting [3]) was more than 10 µM each time.
Turning to `Cc1nn(-c2ccc(S(=O)(=O)NC[C@@H](O)CO)cc2)c2nn3nnnc3nc12` [MM127], the half-maximal inhibitory concentration (IC50) with U-118 MG, with U-87 MG (setting [2]), in the data set with T98G (setting [2]), in the data set on C8-D1A (setting [2]) and in the data set with A172 (setting [3]) was more than 10 µM in each case.

The IC50 is the concentration needed to halve the response being measured.
